Results reported in patent publication US12391697B2, “Condensed bi-heterocycles as inhibiting agents for Bruton's tyrosine kinase” (BIOGEN MA INC., priority 2019, dated 2025).
Structures can show the parent of a compound that is named as a salt.

Columns and labels:
[1] = test system: CD69 expression on CD19+ B cells in whole blood; experiment: In Vitro Whole Blood CD69 Assay; format: cell-based, Human; conditions: Homo sapiens, B-cell, human heparinized whole blood, anti-human IgD stimulation, percentage of CD19+ B cells expressing CD69; read-out: IC50
Protocol: In Vitro Whole Blood CD69 Assay
Human heparinized venous blood from health donors was aliquoted into 96-well plate and “spiked” with serial dilutions of formula I compounds in DMSO or with DMSO without drug. The final concentration of DMSO in all wells was 0.1%. The plate was incubated at 37° C. for 30 min. Drug-containing samples were stimulated with 0.1 μg/mL mouse anti-human IgD-dextran (1A62) or 20 μg/mL polyclonal rabbit F(ab′)2 anti-human IgD. Phosphate-buffered saline (PBS) was added to the negative control unstimulated sample and the plates were incubated overnight (18 to 22 hours) at 37° C. Cells were stained with fluorochrome-conjugated anti-CD19 and anti-CD69 antibodies. Lyse/fix solution was used to remove red blood cells by hypotonic lysis and to fix the remaining cells, which were then analyzed by flow cytometry. CD19+ B cells were gated and analyzed for CD69 expression. The percentage of B cells expressing CD69 was plotted versus the log 10 of the concentration of the drug and the best-fit curves (variable Hill slope) were generated to obtain the IC50 value.

BTK = BTK (Homo sapiens (Human), UniProt Q06187); experiment: In Vitro BTK Kinase Assay: Btk-PolyGAT-LS Assay; format: biochemical; conditions: active BTK enzyme 0.25 nM, ATP 10 μM, polyGAT 100 nM, 30 minutes
How it was run: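 Recombinant BTK (0.25 nM) phosphorylating 100 nM polyGAT at 10 μM ATP in Tris-HCl pH 7.5 buffer with MgCl2, DTT, Triton X-100 and casein, 30 min, then EDTA stop.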

Chain of BTK (Q06187 whole entry): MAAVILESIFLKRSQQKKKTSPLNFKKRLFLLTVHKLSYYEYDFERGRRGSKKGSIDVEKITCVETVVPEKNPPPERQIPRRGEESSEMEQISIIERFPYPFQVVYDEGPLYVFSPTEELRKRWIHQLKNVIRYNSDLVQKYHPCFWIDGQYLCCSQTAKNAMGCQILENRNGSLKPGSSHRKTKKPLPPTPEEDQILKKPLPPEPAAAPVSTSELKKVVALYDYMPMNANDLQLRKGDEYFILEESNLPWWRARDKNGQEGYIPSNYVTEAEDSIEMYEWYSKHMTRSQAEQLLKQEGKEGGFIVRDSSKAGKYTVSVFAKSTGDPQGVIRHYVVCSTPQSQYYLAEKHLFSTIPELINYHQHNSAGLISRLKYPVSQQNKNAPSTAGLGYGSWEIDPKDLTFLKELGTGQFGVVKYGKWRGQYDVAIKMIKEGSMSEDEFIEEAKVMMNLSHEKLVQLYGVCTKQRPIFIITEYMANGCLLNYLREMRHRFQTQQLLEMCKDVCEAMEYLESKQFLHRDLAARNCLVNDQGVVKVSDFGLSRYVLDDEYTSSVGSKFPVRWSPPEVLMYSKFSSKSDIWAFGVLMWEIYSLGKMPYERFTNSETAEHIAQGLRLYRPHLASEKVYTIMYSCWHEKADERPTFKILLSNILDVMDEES

SMILES | IC50 [1] [nM] | IC50 (BTK) [nM]
Cc1c([C@@H](C)NC(=O)c2noc(C(C)(C)C)n2)ccc(-c2ncnn3cc(N4CCOCC4)cc23)c1F [Example 31, (R)-5-(tert-butyl)-N-(1-(3-fluoro-2-methyl-4-(6-morpholinopyrrolo[2,1-f][1,2,4]triazin-4-yl)phenyl)ethyl)-1,2,4-oxadiazole-3-carboxamide] | 100 to 1000 | ≤ 1
COc1c(CNC(=O)c2nc(C(C)(C)C)no2)ccc(-c2ncnn3cc(-c4cnn(C)c4)cc23)c1F [Example 45, 3-(tert-butyl)-N-(3-fluoro-2-methoxy-4-(6-(1-methyl-1H-pyrazol-4-yl)pyrrolo[2,1-f][1,2,4]triazin-4-yl)benzyl)-1,2,4-oxadiazole-5-carboxamide] | 100 to 1000 | ≤ 1
Cc1cc(-c2ncnn3cc(-c4cnn(C)c4)cc23)ccc1[C@@H](C)NC(=O)c1nc(C(C)(C)C)no1 [Example 57, (R)-3-(tert-butyl)-N-(1-(2-methyl-4-(6-(1-methyl-1H-pyrazol-4-yl)pyrrolo[2,1-f][1,2,4]triazin-4-yl)phenyl)ethyl)-1,2,4-oxadiazole-5-carboxamide] | 100 to 1000 | ≤ 1
COC1CN(c2cc3c(-c4ccc(CNC(=O)c5noc(C(C)(C)C)n5)c(C)c4)ncnn3c2)C1 [Example 8, 5-(tert-butyl)-N-(4-(6-(3-methoxyazetidin-1-yl)pyrrolo[2,1-f][1,2,4]triazin-4-yl)-2-methylbenzyl)-1,2,4-oxadiazole-3-carboxamide] | 100 to 1000 | ≤ 1
Cc1cc(-c2ncnn3cc(N4CCC(F)C4)cc23)ccc1CNC(=O)c1noc(C(C)(C)C)n1 (centres unmarked) [Example 11, 5-(tert-butyl)-N-(4-(6-(3-fluoropyrrolidin-1-yl)pyrrolo[2,1-f][1,2,4]triazin-4-yl)-2-methylbenzyl)-1,2,4-oxadiazole-3-carboxamide trifluoroacetate] | 100 to 1000 | ≤ 1
Cc1c(CNC(=O)c2noc(C(C)(C)CF)n2)ccc(-c2ncnn3cc(-c4cnn(C)c4)cc23)c1F [Example 33, N-(3-fluoro-2-methyl-4-(6-(1-methyl-1H-pyrazol-4-yl)pyrrolo[2,1-f][1,2,4]triazin-4-yl)benzyl)-5-(1-fluoro-2-methylpropan-2-yl)-1,2,4-oxadiazole-3-carboxamide] | 100 to 1000 | ≤ 1
Cc1cc(-c2ccnc3cc(-c4cnn(C)c4)nn23)ccc1CNC(=O)c1noc(C(C)(C)C)n1 [Example 16, 5-(tert-butyl)-N-(2-methyl-4-(2-(1-methyl-1H-pyrazol-4-yl)pyrazolo[1,5-a]pyrimidin-7-yl)benzyl)-1,2,4-oxadiazole-3-carboxamide trifluoroacetate] | 100 to 1000 | ≤ 1
